This note sets out measurements from patent US20180271960A1, “METHOD TO TREAT CANCER USING ARGININE DELPETOR AND ORNITHINE DECARBOXYLASE (ODC) INHIBITOR” (Bio-Cancer Treatment International Ltd., priority 2015, published 2018).

Assay [1] has as its system Hep G2 hepatocellular carcinoma xenograft. The assay is described as follows: Hep G2 hepatocellular carcinoma xenograft model. As to conditions: PEG-BCT-100 20 mg/kg IV twice a week, DFMO 2% w/v in drinking water. The assay is classed as in vivo, mouse. How it is done: In one example embodiment, the Hep G2 human liver cancer cells are maintained in vitro culture in RPMI1640 medium supplemented with 10% fetal bovine serum at 37° C. in an atmosphere of 5% CO2 in air. The tumour cells are routinely sub-cultured twice weekly. The cells in an exponential growth phase are harvested and counted for tumour inoculation.
Each mouse is inoculated subcutaneously at the right flank region with Hep G2 tumour cells (1×10^7) in 0.2 ml of PBS (1:1 Matrigel) for tumour development. The treatments start when the mean tumour volume reaches 124 mm^3. The date of tumour cell inoculation is denoted as day 0.
Four treatment groups of animals, with eight animals in each group, are tested. Control group (negative control) receives physiological saline, and the three treatment groups respectively receive 20 mg/kg of PEG-BCT-100 alone, 2% w/v DFMO in drinking water, and combination of 20 mg/kg of PEG-BCT-100 and 2% w/v DFMO. PEG-BCT-100 is administered intravenously, twice a week, until euthanization while DFMO is supplied in drinking water at 2% w/v.

Assay [2] deals with A549 lung adenocarcinoma cell line. Put plainly: MTT assay, growth inhibition of A549 cell line. As to conditions: 48 h and 72 h at 0.5 ng/μl and 10 ng/μl. The assay is classed as cell-based. How it is done:
The inhibition ratio (IR) and the half maximal inhibitory concentration (IC50) values are determined by a MTT assay.
For orientation: Tetrazolium assays rely on reduction of a dye to a coloured formazan, in cell work by metabolically active cells.

Take `NCCC[C@](N)(C(=O)O)C(F)F` [DFMO, α-difluoromethylornithine, reference compound]: in assay [1], the anti-tumour effect entry is given as “significant anti-tumour effect”.

B1: PEG-BCT-100: pegylated recombinant human arginase I (SEQ ID NO.1, or SEQ ID NO.3 with six histidines), about 6-12 PEG molecules per arginase (protein, UniProt P05089 1-322, looked up)
Arginase-1: MSAKSRTIGIIGAPFSKGQPRGGVEEGPTVLRKAGLLEKLKEQECDVKDYGDLPFADIPNDSPFQIVKNPRSVGKASEQLAGKVAEVKKNGRISLVLGGDHSLAIGSISGHARVHPDLGVIWVDAHTDINTPLTTTSGNLHGQPVSFLLKELKGKIPDVPGFSWVTPCISAKDIVYIGLRDVDPGEHYILKTLGIKYFSMTEVDRLGIGKVMEETLSYLLGRKKRPIHLSFDVDGLDPSFTPATGTPVVGGLTYREGLYITEEIYKTGLLSGLDIMEVNPSLGKTPEEVTRTVNTAVAITLACFGLAREGNHKPIDYLNPPK
modifications: PEG, about 6-12 per arginase; optional His6 tag
For the molecule B1, the “growth inhibition effect (cell proliferation)” value in assay [2] is recorded as “inhibits A549 lung adenocarcinoma cell line proliferation more effectively than ADI”.
